Experimental data reported in PubChem BioAssay AID276 (DTP/NCI, 2004).
Several values for one entry are separate records, joined by “and”; a condition that tells them apart may be missing. Equal values may be shown once. Toxic doses and inconclusive results are not listed. The calls were made as follows: active = survival T/C of 150% or more; inactive = T/C below 125% in these data.

Tested on: B6C3F1 mice, Lewis lung carcinoma iv, survival T/C
Test: NCI In Vivo Anticancer Drug Screen. Data for tumor model Lewis Lung Carcinoma (intravenous) in B6C3F1 mice
Settings: endpoint: median survival time, schedule: Q01DX009 (ip), higher = longer survival
How it was run: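 Read-out is survival, expressed as the treated-group measurement over the vehicle control-group measurement. Animals bore a transplantable tumor and were given compound.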

[1] = dose: 1.56 mg/kg/injection, vehicle: saline
[2] = dose: 3.12 mg/kg/injection, vehicle: saline
[3] = dose: 6.25 mg/kg/injection, vehicle: saline
[4] = dose: 12.5 mg/kg/injection, vehicle: saline
[5] = dose: 25.0 mg/kg/injection, vehicle: water
[6] = dose: 50.0 mg/kg/injection, vehicle: water
[7] = dose: 100.0 mg/kg/injection, vehicle: water
[8] = dose: 200.0 mg/kg/injection, vehicle: water
[9] = dose: 25.0 mg/kg/injection, vehicle: saline with Tween-80
[10] = dose: 50.0 mg/kg/injection, vehicle: saline with Tween-80
[11] = dose: 100.0 mg/kg/injection, vehicle: saline with Tween-80
[12] = dose: 25.0 mg/kg/injection, vehicle: saline
[13] = dose: 50.0 mg/kg/injection, vehicle: saline
[14] = dose: 50.0 mg/kg/injection, vehicle: Klucel (hydroxypropylcellulose) (HPC)
[15] = dose: 100.0 mg/kg/injection, vehicle: saline
[16] = dose: 12.5 mg/kg/injection, vehicle: saline with Tween-80
[17] = dose: 200.0 mg/kg/injection, vehicle: saline with Tween-80
[18] = dose: 400.0 mg/kg/injection, vehicle: saline with Tween-80
[19] = dose: 200.0 mg/kg/injection, vehicle: saline
[20] = dose: 12.5 mg/kg/injection, vehicle: water
[21] = dose: 100.0 mg/kg/injection, vehicle: Klucel (hydroxypropylcellulose) (HPC)
[22] = dose: 6.25 mg/kg/injection, vehicle: saline with Tween-80

Measured: T/C

NC(=O)c1csc(C2OC(CO)C(O)C2O)n1 (centres undefined)
active: dose: 12.0 mg/kg/injection, vehicle: saline 155 % of control and 158 % of control | [4] 284 % of control | [5] 240 % of control and 348 % of control and 355 % of control | [6] 240 % of control and 348 % of control and 355 % of control | dose: 62.5 mg/kg/injection, vehicle: water 295 % of control | [7] 240 % of control and 348 % of control and 355 % of control | dose: 125.0 mg/kg/injection, vehicle: water 295 % of control | [8] 240 % of control and 348 % of control and 355 % of control | dose: 250.0 mg/kg/injection, vehicle: water 295 % of control | dose: 400.0 mg/kg/injection, vehicle: water 240 % of control and 348 % of control and 355 % of control | dose: 500.0 mg/kg/injection, vehicle: water 295 % of control | dose: 800.0 mg/kg/injection, vehicle: water 240 % of control | dose: 1000.0 mg/kg/injection, vehicle: water 295 % of control
inactive: dose: 0.78 mg/kg/injection, vehicle: saline 94 % of control | [1] 109 % of control | [2] 108 % of control | [3] 119 % of control

CC1(C)CC2(C)OC2C2(C1)N=NC(=Nc1ccccc1)O2 (centres undefined)
inactive: [9] 97 % of control | [10] 100 % of control | [11] 106 % of control

Brc1c(NC2=NCCN2)ccc2nccnc12
inactive: [1] 103 % of control | [2] 114 % of control | [3] 100 % of control | [4] 101 % of control | [12] 101 % of control | [13] 112 % of control

Nc1ncnc2c1nnn2C1OC(CO)C(O)C1O (centres undefined)
inactive: dose: 12.5 mg/kg/injection, vehicle: Klucel (hydroxypropylcellulose) (HPC) 110 % of control | dose: 25.0 mg/kg/injection, vehicle: Klucel (hydroxypropylcellulose) (HPC) 103 % of control | [14] 105 % of control

O=C1c2ccccc2C(=O)c2c3c(cc(NCCNCCO)c21)N(CCO)CCN3
inactive: dose: 12.5 mg/kg/injection, vehicle: DMSO 101 % of control | dose: 25.0 mg/kg/injection, vehicle: DMSO 95 % of control | dose: 50.0 mg/kg/injection, vehicle: DMSO 104 % of control | dose: 100.0 mg/kg/injection, vehicle: DMSO 101 % of control | dose: 200.0 mg/kg/injection, vehicle: DMSO 96 % of control

CC1(C)COCN1COCCOCN1COCC1(C)C
inactive: [3] 103 % of control | [4] 108 % of control | [12] 97 % of control | [13] 104 % of control | [15] 107 % of control

CN(C)P(=O)(Oc1ccccc1)N(C)C
inactive: [16] 113 % of control | [9] 98 % of control | [10] 101 % of control | [11] 115 % of control | [17] 101 % of control | [18] 100 % of control

CC(Cc1ccc(O)c(O)c1)C(C)Cc1ccc(O)c(O)c1 (centres undefined)
inactive: dose: 12.0 mg/kg/injection, vehicle: saline with Tween-80 100 % of control | [9] 113 % of control | [10] 103 % of control | [11] 94 % of control | [17] 104 % of control | [18] 100 % of control

Nc1nc(F)nc2c1ncn2C1OC(COP(=O)(O)O)C(O)C1O (centres undefined)
inactive: [4] 105 % of control | [12] 102 % of control | [13] 103 % of control | [15] 114 % of control | [19] 87 % of control

BrC[P+](CBr)(CBr)CBr
inactive: [16] 93 % of control | [9] 102 % of control | [10] 97 % of control | [11] 97 % of control | [17] 89 % of control | [18] 95 % of control

[Cl][Pt+2][Cl].[NH-]CC1(C[NH-])CCC1
inactive: dose: 1.56 mg/kg/injection, vehicle: suspension in saline 96 % of control | dose: 3.12 mg/kg/injection, vehicle: suspension in saline 105 % of control

O=C1OC(=O)[C@H]2[C@@H]1[C@H]1C=C[C@@H]2OC1=O
inactive: dose: 12.5 mg/kg/injection, vehicle: suspension in saline 104 % of control | dose: 25.0 mg/kg/injection, vehicle: suspension in saline 119 % of control | dose: 50.0 mg/kg/injection, vehicle: suspension in saline 98 % of control | dose: 100.0 mg/kg/injection, vehicle: suspension in saline 99 % of control | dose: 200.0 mg/kg/injection, vehicle: suspension in saline 104 % of control

C1CC[N-]CC1.[Cl][Pt+2][Cl].[NH-]C1CC1
inactive: dose: 1.56 mg/kg/injection, vehicle: water 106 % of control | dose: 3.12 mg/kg/injection, vehicle: water 110 % of control | dose: 6.25 mg/kg/injection, vehicle: water 107 % of control and 109 % of control | [20] 102 % of control and 120 % of control

C[C@H](N)C(=O)N[C@@H]1[C@H]2C(=C(O)C[C@@H](O)[C@@H]2O)C(=O)O[C@]1(C)C(Cl)Cl
inactive: dose: 0.19 mg/kg/injection, vehicle: Klucel (hydroxypropylcellulose) (HPC) 97 % of control | dose: 0.38 mg/kg/injection, vehicle: Klucel (hydroxypropylcellulose) (HPC) 101 % of control | dose: 0.75 mg/kg/injection, vehicle: Klucel (hydroxypropylcellulose) (HPC) 111 % of control | dose: 1.5 mg/kg/injection, vehicle: Klucel (hydroxypropylcellulose) (HPC) 100 % of control

CC(C#N)(C#N)N=Nc1ccc(Cl)cc1Cl
inactive: [16] 98 % of control | [9] 104 % of control | [10] 109 % of control | [11] 110 % of control | [17] 106 % of control | [18] 104 % of control

COC(=O)Nc1cn2ccc(C(Cl)=C(Cl)Cl)cc2n1
inactive: [21] 116 % of control | dose: 200.0 mg/kg/injection, vehicle: Klucel (hydroxypropylcellulose) (HPC) 103 % of control

CC1/C=C/C=C/CC/C=C/C=C/C=C/C=C/C(OC2OC(C)C(O)C(N)C2O)CC2OC(CC(O)C(O)CCC(O)CC(O)CC(O)CC(=O)OC(C)C(C)C1O)CC(O)C2C(=O)O (centres undefined)
inactive: [22] 103 % of control | [16] 103 % of control | [9] 98 % of control | [10] 101 % of control

Cc1ncc([N+](=O)[O-])n1CCSC(N)=O
inactive: [4] 107 % of control | [12] 102 % of control | [13] 110 % of control | [15] 95 % of control | [19] 106 % of control | dose: 400.0 mg/kg/injection, vehicle: saline 97 % of control

c1ccc2sc(SSN3CC4CCC(CC4)C3)nc2c1
inactive: [16] 100 % of control | [9] 93 % of control | [10] 90 % of control | [11] 91 % of control | [17] 106 % of control

C[C@]12C=CC(=O)C=C1CC[C@@H]1[C@@H]2C(=O)C[C@@]2(C)[C@H]1CC[C@]2(O)C(=O)CO
inactive: [20] 100 % of control | [5] 100 % of control | [6] 96 % of control | [7] 98 % of control | [8] 94 % of control

c1cc2n(n1)CCN2
inactive: [12] 107 % of control | [13] 97 % of control | [15] 97 % of control

C#C[C@]1(O)CC[C@H]2[C@@H]3CCc4cc(O)ccc4[C@H]3CC[C@@]21C
inactive: [14] 118 % of control and 122 % of control | [21] 113 % of control and 114 % of control | dose: 400.0 mg/kg/injection, vehicle: Klucel (hydroxypropylcellulose) (HPC) 107 % of control

CCc1nc(N)nc(N)c1-c1ccc(Cl)c([N+](=O)[O-])c1
inactive: dose: 1.56 mg/kg/injection, vehicle: saline with Tween-80 104 % of control | dose: 3.12 mg/kg/injection, vehicle: saline with Tween-80 105 % of control | [22] 104 % of control | [16] 105 % of control

CC(C)NCC(O)COc1ccc(O)c(O)c1 (centres undefined)
inactive: [12] 93 % of control and 96 % of control | [13] 98 % of control and 100 % of control | [15] 89 % of control and 96 % of control | [19] 98 % of control
